Where “and” joins values, the source holds several entries; their conditions need not be identical. Equal values may be shown once.
Columns and labels:
[1] = system: Hs578T; test: drug sensitivity score (DSS), CellTiter-Glo (DSS (AUC-based score)); higher = stronger drug effect (viability inhibition or cytotoxicity); extreme values may be limits of the assay; details: incubation time: 72 h
Outline: (§1)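 For 72 h, breast cancer cell lines seeded at 20 µl suspension per well in 384-well plates were incubated with compound at 5 concentrations in 10-fold steps spanning a 10,000-fold range that differed by compound. The first reading was CellTox Green fluorescence at 485/520 nm, and the second was CellTiter-Glo luminescence after 10 min at room temperature. Both were normalised per plate to 0.1 % DMSO and a positive kill control, and the drug sensitivity score was obtained from the area under the fitted dose-response curve.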

[2] = system: DU-4475; test: as above; details: incubation time: 72 h
Outline: as §1

[3] = system: MCF-10A; test: as above; details: incubation time: 72 h
Outline: as §1

[4] = system: CAL-85-1; test: as above; details: incubation time: 72 h
Outline: as §1

[5] = system: HCC1143; test: as above; details: incubation time: 72 h
Outline: as §1

[6] = system: BT-474; test: as above; details: incubation time: 72 h
Outline: as §1

[7] = system: BT-549; test: as above; details: incubation time: 72 h
Outline: as §1

[8] = system: SK-BR-3; test: as above; details: incubation time: 72 h
Outline: as §1

[9] = system: CAL-148; test: as above; details: incubation time: 72 h
Outline: as §1

[10] = system: HCC1937; test: as above; details: incubation time: 72 h
Outline: as §1

[11] = system: MDA-MB-231; test: as above; details: incubation time: 72 h
Outline: as §1

[12] = system: Hs578T; test: normalised viability (% of control), CellTiter-Blue; higher = more viable cells (about 100 = DMSO control); details: 100 nM; incubation time: 72 h
Experimental: (§2)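 DSRT, CellTiter-Blue viability, 72 h incubation. Signal is normalised to DMSO and benzethonium chloride controls. Value is the normalised response at dose 3.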

[13] = system: DU-4475; test: as above; details: 10 nM; incubation time: 72 h
Experimental: as §2

[14] = system: CAL-85-1; test: as above; details: 10 nM; incubation time: 72 h
Experimental: as §2

[15] = system: CAL-51; test: as above; details: 10 nM; incubation time: 72 h
Experimental: as §2

[16] = system: HDQ-P1; test: as above; details: 10 nM; incubation time: 72 h
Experimental: as §2

[17] = system: MFM-223; test: as above; details: 100 nM; incubation time: 72 h
Experimental: as §2

[18] = system: MDA-MB-453; test: as above; details: 10 nM; incubation time: 72 h
Experimental: as §2

[19] = system: HCC1599; test: as above; details: 100 nM; incubation time: 72 h
Experimental: as §2

[20] = system: BT-474; test: as above; details: 100 nM; incubation time: 72 h
Experimental: as §2

[21] = system: BT-549; test: as above; details: 100 nM; incubation time: 72 h
Experimental: as §2

[22] = system: SK-BR-3; test: as above; details: 100 nM; incubation time: 72 h
Experimental: as §2

[23] = system: CAL-148; test: as above; details: 10 nM; incubation time: 72 h
Experimental: as §2

[24] = system: CAL-120; test: as above; details: 100 nM; incubation time: 72 h
Experimental: as §2

[25] = system: HCC1937; test: as above; details: 100 nM; incubation time: 72 h
Experimental: as §2

[26] = system: MDA-MB-468; test: as above; details: 100 nM; incubation time: 72 h
Experimental: as §2

[27] = system: MDA-MB-436; test: as above; details: 100 nM; incubation time: 72 h
Experimental: as §2

[28] = system: MDA-MB-231; test: as above; details: 100 nM; incubation time: 72 h
Experimental: as §2

[29] = system: HCC1143; test: as above; details: 100 nM; incubation time: 72 h
Experimental: as §2

Row | SMILES | drug sensitivity score [1] | drug sensitivity score [2] | drug sensitivity score [3] | drug sensitivity score [4] | drug sensitivity score [5] | drug sensitivity score [6] | drug sensitivity score [7] | drug sensitivity score [8] | drug sensitivity score [9] | drug sensitivity score [10] | drug sensitivity score [11] | normalised viability [12] | normalised viability [13] | normalised viability [14] | normalised viability [15] | normalised viability [16] | normalised viability [17] | normalised viability [18] | normalised viability [19] | normalised viability [20] | normalised viability [21] | normalised viability [22] | normalised viability [23] | normalised viability [24] | normalised viability [25] | normalised viability [26] | normalised viability [27] | normalised viability [28] | normalised viability [29]
1 | Cn1cc(C[C@@H](N)C(=O)O)c2ccccc21 [1-methyl-D-tryptophan] | 0 | 0 | 0 | 0 | 0 | 0 | 0 | 0 | 0 | 0 | 0 |  |  |  |  |  |  |  |  |  |  |  |  |  |  |  |  |  | 
2 | COc1cc2c(cc1-c1c(C)noc1C)ncc1[nH]c(=O)n([C@H](C)c3ccccn3)c12 [I-BET151] | 9.14 | 3.45 | 5.37 | 8.93 | 1.94 | 3.77 | 8.5 | 3.27 | 0 | 2.32 | 2.63 |  |  |  |  |  |  |  |  |  |  |  |  |  |  |  |  |  | 
3 | CCCc1cc(C)[nH]c(=O)c1CNC(=O)c1cc(-c2ccnc(N3CCN(C)CC3)c2)cc2c1cnn2C(C)C [GSK343] | 0 | 1.22 | 0 | 1.9 | 0 | 3.79 | 1.73 | 6.24 | 0.724 | 0 | 4.65 |  |  |  |  |  |  |  |  |  |  |  |  |  |  |  |  |  | 
4 | CC(C)(C)Cn1c(N)nc2ccc(-c3[nH]c(C(C)(C)C)nc3-c3ccc(F)cc3)nc21 | 0 | 0 | 3.14 | 0 | 0 | 0.606 | 1.72 | 0.963 | 0 | 0 | 0 |  |  |  |  |  |  |  |  |  |  |  |  |  |  |  |  |  | 
5 | CCCCCOC(=O)Nc1nc(=O)n([C@@H]2O[C@H](C)[C@@H](O)[C@H]2O)cc1F [Capecitabine] | 0 | 0 | 0 | 0 | 0 | 0 | 0 | 0 | 0 | 0 | 0 | 83.7% and 96.8% | 97.4% and 107% | 96.7% and 98.3% | 110% and 102% | 106% and 91.4% | 87.7% and 104% | 94.8% and 93.2% | 123% and 106% | 114% and 99.9% | 103% and 97.5% | 77.5% and 96.3% | 86.9% and 94.2% | 85.3% and 95.2% | 86.1% and 80.9% | 101% and 111% | 95.8% and 95.6% | 98.2% and 87% | 
6 | CC(C)NC[C@@H](C(=O)N1CCN(c2ncnc3c2[C@H](C)C[C@H]3O)CC1)c1ccc(Cl)cc1 [GDC-0068] | 3.59 | 1.13 | 3.41 | 2.16 | 2.35 | 0.706 | 6.02 | 6.46 | 19.6 | 3.46 | 0 |  |  |  |  |  |  |  |  |  |  |  |  |  |  |  |  |  | 
7 | CN1CCc2c(c3ccccc3n2Cc2ccc(C(=O)NO)cc2)C1 [Tubastatin A] | 0 | 0 | 0 | 0.989 | 2.45 | 0 | 0.314 | 1.22 | 0 | 1.2 | 0 |  |  |  |  |  |  |  |  |  |  |  |  |  |  |  |  |  | 
8 | Cc1c(C(=O)Nc2ccc(N3C[C@@H](C)O[C@@H](C)C3)nc2)cccc1-c1ccc(OC(F)(F)F)cc1 [Erismodegib] | 0 | 0 | 0 | 0 | 0 | 3.21 | 1.37 | 0 | 0 | 0 | 0 |  |  |  |  |  |  |  |  |  |  |  |  |  |  |  |  |  | 
9 | CCc1cnn2c(NCc3ccc[n+]([O-])c3)cc(N3CCCC[C@H]3CCO)nc12 [Dinaciclib] | 18.7 | 16.6 | 12.9 | 25.4 | 19.1 | 18.3 | 19.6 | 25.1 | 7.54 | 14.9 | 25.4 |  |  |  |  |  |  |  |  |  |  |  |  |  |  |  |  |  | 
10 | CO[C@H](C(=O)[C@@H](O)[C@@H](C)O)[C@@H]1Cc2cc3cc(O[C@H]4C[C@@H](O[C@@H]5C[C@@H](O)[C@H](O)[C@@H](C)O5)[C@H](O)[C@@H](C)O4)c(C)c(O)c3c(O)c2C(=O)[C@H]1O[C@H]1C[C@@H](O[C@@H]2C[C@@H](O)[C@@H](O[C@@H]3C[C@](C)(O)[C@H](O)[C@@H](C)O3)[C@@H](C)O2)[C@H](O)[C@@H](C)O1 [Plicamycin] | 4.2 | 5.55 | 4.28 | 4.1 | 4.54 | 6.47 | 7.16 | 3.86 | 4.43 | 4.37 | 5.67 | 13% and 6.55% | 88.6% and 110% | 96.7% and 94.2% | 98.2% and 109% |  | 71.4% and 61.1% | 111% and 91.1% | 63% and 52.6% | 73.2% and 72.3% | 20.2% and 17% | 30.8% and 21.9% | 82.9% and 99.5% | 45% and 34.8% | 48.3% and 41.4% | 9.16% and 7.26% | 30.2% and 23.4% | 34.4% and 28.9% | 46% and 30.6%
